Laboratory results: patent US8748426B2, “Inhibitors of diacylglycerol acyl transferase” (Piramal Enterprises Limited, priority 2009, dated 2014)

These compounds were tested against T1, hDGAT1 (Homo sapiens, UniProt O75907) (assay: In-vitro DGAT1 assay (14C oleoyl CoA, hDGAT1 microsomes from Sf9 cells)). Details: at 1 μM.
T1 sequence (O75907 1-488): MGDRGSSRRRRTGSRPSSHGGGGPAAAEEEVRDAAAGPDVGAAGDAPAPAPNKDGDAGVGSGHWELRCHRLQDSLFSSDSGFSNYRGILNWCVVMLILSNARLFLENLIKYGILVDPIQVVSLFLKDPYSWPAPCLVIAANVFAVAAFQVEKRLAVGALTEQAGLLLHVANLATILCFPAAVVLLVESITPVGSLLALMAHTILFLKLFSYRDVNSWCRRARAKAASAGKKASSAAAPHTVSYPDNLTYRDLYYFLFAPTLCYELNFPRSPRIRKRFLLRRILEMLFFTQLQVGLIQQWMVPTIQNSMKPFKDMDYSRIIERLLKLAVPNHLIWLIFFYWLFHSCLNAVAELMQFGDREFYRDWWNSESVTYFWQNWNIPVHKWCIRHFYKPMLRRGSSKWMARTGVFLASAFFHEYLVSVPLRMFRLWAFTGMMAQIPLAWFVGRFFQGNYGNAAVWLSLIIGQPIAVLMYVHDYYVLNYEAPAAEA

| % Inhibition of hDGAT1 | Compound |
| --- | --- |
| ++ (>50% Inhibition) | 3-(1-Oxo-6-(4-(4-(trifluoromethyl)benzamido)phenyl)isoindolin-2-yl)cyclo hexanecarboxylic acid [Example 551] |
| + (10-50% Inhibition) | Cc1ccc(NC(=O)Nc2ccc(-c3ccc4c(c3)C(=O)N([C@H](C(=O)O)C(C)C)C4)cc2)cc1 [Example 24] |
| ++ (>50% Inhibition) | CC(C)[C@@H](C(=O)O)N1Cc2ccc(-c3ccc(NC(=S)Nc4ccccc4C(F)(F)F)cc3)cc2C1=O [Example 66] |

Same assay, conditions: read-out: % Inhibition of hDGAT1

| Compound | inhibition at 1 µM |
| --- | --- |
| CC(C)[C@@H](C(=O)O)N1Cc2ccc(-c3ccc(NC(=O)Nc4ccc(F)cc4)cc3)cc2C1=O [Example 8, (S)-2-(6-(4-(3-(4-Fluorophenyl)ureido)phenyl)-1-oxoisoindolin-2-yl)-3-methyl butanoic acid] | 10 to 50% |
| CC(C)[C@@H](C(=O)O)N1Cc2ccc(-c3ccc(NC(=O)Nc4ccc(F)cc4F)cc3)cc2C1=O [Example 10, (S)-2-(6-(4-(3-(2,4-Difluorophenyl)ureido)phenyl)-1-oxoisoindolin-2-yl)-3-methylbutanoic acid] | 10 to 50% |
| CC(C)[C@@H](C(=O)O)N1Cc2ccc(-c3ccc(NC(=O)Nc4ccccc4F)cc3)cc2C1=O [Example 12, (S)-2-(6-(4-(3-(2-Fluorophenyl)ureido)phenyl)-1-oxoisoindolin-2-yl)-3-methyl butanoic acid] | 10 to 50% |
| CC(C)[C@@H](C(=O)O)N1Cc2ccc(-c3ccc(NC(=O)Nc4cccc(F)c4)cc3)cc2C1=O [Example 14, (S)-2-(6-(4-(3-(3-Fluorophenyl)ureido)phenyl)-1-oxoisoindolin-2-yl)-3-methyl butanoic acid] | 10 to 50% |
| CC(C)[C@@H](C(=O)O)N1Cc2ccc(-c3ccc(NC(=O)Nc4ccccc4)cc3)cc2C1=O [Example 16, (S)-3-Methyl-2-(1-oxo-6-(4-(3-phenylureido)phenyl)isoindolin-2-yl)butanoic acid] | 10 to 50% |
| CC(C)[C@@H](C(=O)O)N1Cc2ccc(-c3ccc(NC(=O)NCc4ccccc4)cc3)cc2C1=O [Example 18, (S)-2-(6-(4-(3-Benzylureido)phenyl)-1-oxoisoindolin-2-yl)-3-methylbutanoic acid] | 10 to 50% |
| CC(C)[C@@H](C(=O)O)N1Cc2ccc(-c3ccc(NC(=O)Nc4c(F)cccc4F)cc3)cc2C1=O [Example 20, (S)-2-(6-(4-(3-(2,6-Difluorophenyl)ureido)phenyl)-1-oxoisoindolin-2-yl)-3-methylbutanoic acid] | 10 to 50% |
| Cc1cccc(NC(=O)Nc2ccc(-c3ccc4c(c3)C(=O)N([C@H](C(=O)O)C(C)C)C4)cc2)c1 [Example 22, (S)-3-Methyl-2-(1-oxo-6-(4-(3-m-tolylureido)phenyl)isoindolin-2-yl)butanoic acid] | 10 to 50% |
| COc1ccc(NC(=O)Nc2ccc(-c3ccc4c(c3)C(=O)N([C@H](C(=O)O)C(C)C)C4)cc2)cc1 [Example 28, (S)-2-(6-(4-(3-(4-Methoxyphenyl)ureido)phenyl)-1-oxoisoindolin-2-yl)-3-methylbutanoic acid] | 10 to 50% |
| CC(C)[C@@H](C(=O)O)N1Cc2ccc(-c3ccc(NC(=O)NC4CCCCC4)cc3)cc2C1=O [Example 34, (S)-2-(6-(4-(3-Cyclohexylureido)phenyl)-1-oxoisoindolin-2-yl)-3-methylbutanoic acid] | > 50% |
| CC(C)[C@@H](C(=O)O)N1Cc2ccc(-c3ccc(NC(=O)Nc4ccc(C(F)(F)F)cc4)cc3)cc2C1=O [Example 36, (S)-3-Methyl-2-(1-oxo-6-(4-(3-(4-(trifluoromethyl)phenyl)ureido)phenyl)isoindolin-2-yl)butanoic acid] | > 50% |
| CC(C)[C@@H](C(=O)O)N1Cc2ccc(-c3ccc(NC(=O)Nc4cccc(C(F)(F)F)c4)cc3)cc2C1=O [Example 38, (S)-3-Methyl-2-(1-oxo-6-(4-(3-(3-(trifluoromethyl)phenyl)ureido)phenyl)isoindolin-2-yl)butanoic acid] | > 50% |
| CC(C)[C@@H](C(=O)O)N1Cc2ccc(-c3ccc(NC(=O)Nc4ccc(C#N)cc4)cc3)cc2C1=O [Example 40, (S)-2-(6-(4-(3-(4-Cyanophenyl)ureido)phenyl)-1-oxoisoindolin-2-yl)-3-methyl butanoic acid] | > 50% |
| CC(C)[C@@H](C(=O)O)N1Cc2ccc(-c3ccc(NC(=O)Nc4cccc(C#N)c4)cc3)cc2C1=O [Example 42, (S)-2-(6-(4-(3-(3-Cyanophenyl)ureido)phenyl)-1-oxoisoindolin-2-yl)-3-methyl butanoic acid] | > 50% |
| CC(C)[C@@H](C(=O)O)N1Cc2ccc(-c3ccc(NC(=O)Nc4cc(Cl)ccc4Oc4ccccc4)cc3)cc2C1=O [Example 46, (S)-2-(6-(4-(3-(5-Chloro-2-phenoxyphenyl)ureido)phenyl)-1-oxoisoindolin-2-yl)-3-methylbutanoic acid] | > 50% |
| CC(C)[C@@H](C(=O)O)N1Cc2ccc(-c3ccc(NC(=O)Nc4ccccc4Oc4ccccc4)cc3)cc2C1=O [Example 48, (S)-3-Methyl-2-(1-oxo-6-(4-(3-(2-phenoxyphenyl)ureido)phenyl)isoindolin-2-yl)butanoic acid] | > 50% |
| CC(C)[C@@H](C(=O)O)N1Cc2ccc(-c3ccc(NC(=O)Nc4ccc(Oc5ccccc5)cc4)cc3)cc2C1=O [Example 50, (S)-3-Methyl-2-(1-oxo-6-(4-(3-(4-phenoxyphenyl)ureido)phenyl)isoindolin-2-yl)butanoic acid] | > 50% |
| CC(C)[C@@H](C(=O)O)N1Cc2ccc(-c3ccc(NC(=S)Nc4cccc(F)c4)cc3)cc2C1=O [Example 56, (S)-2-(6-(4-(3-(3-Fluorophenyl)thioureido)phenyl)-1-oxoisoindolin-2-yl)-3-methylbutanoic acid] | 10 to 50% |
| COc1ccc(NC(=S)Nc2ccc(-c3ccc4c(c3)C(=O)N([C@H](C(=O)O)C(C)C)C4)cc2)cc1 [Example 58, (S)-2-(6-(4-(3-(4-Methoxyphenyl)thioureido)phenyl)-1-oxoisoindolin-2-yl)-3-methylbutanoic acid] | > 50% |
| CC(C)[C@@H](C(=O)O)N1Cc2ccc(-c3ccc(NC(=S)Nc4cccc(C#N)c4)cc3)cc2C1=O [Example 70, (S)-2-(6-(4-(3-(3-Cyanophenyl)thioureido)phenyl)-1-oxoisoindolin-2-yl)-3-methylbutanoic acid] | 10 to 50% |

Other lines, results leading:

| inhibition at 1 µM | Compound |
| --- | --- |
| 10 to 50% | COc1cccc(NC(=O)Nc2ccc(-c3ccc4c(c3)C(=O)N([C@H](C(=O)O)C(C)C)C4)cc2)c1 [Example 26, (S)-2-(6-(4-(3-(3-Methoxyphenyl)ureido)phenyl)-1-oxoisoindolin-2-yl)-3-methyl butanoic acid] |
| 10 to 50% | CC(C)[C@@H](C(=O)O)N1Cc2ccc(-c3ccc(NC(=O)Nc4cc(F)cc(F)c4)cc3)cc2C1=O [Example 30, (S)-2-(6-(4-(3-(3,5-Difluorophenyl)ureido)phenyl)-1-oxoisoindolin-2-yl)-3-methylbutanoic acid] |
| 10 to 50% | CC(C)[C@@H](C(=O)O)N1Cc2ccc(-c3ccc(NC(=O)Nc4ccc(F)c(F)c4)cc3)cc2C1=O [Example 32, (S)-2-(6-(4-(3-(3,4-Difluorophenyl)ureido)phenyl)-1-oxoisoindolin-2-yl)-3-methylbutanoic acid] |
| > 50% | CC(C)[C@@H](C(=O)O)N1Cc2ccc(-c3ccc(NC(=O)Nc4ccc(Cl)cc4Oc4ccccc4)cc3)cc2C1=O [Example 44, (S)-2-(6-(4-(3-(4-Chloro-2-phenoxyphenyl)ureido)phenyl)-1-oxoisoindolin-2-yl)-3-methylbutanoic acid] |
| 10 to 50% | CC(C)[C@@H](C(=O)O)N1Cc2ccc(-c3ccc(NC(=S)Nc4ccccc4F)cc3)cc2C1=O [Example 52, (S)-2-(6-(4-(3-(2-Fluorophenyl)thioureido)phenyl)-1-oxoisoindolin-2-yl)-3-methylbutanoic acid] |
| 10 to 50% | Cc1ccc(NC(=S)Nc2ccc(-c3ccc4c(c3)C(=O)N([C@H](C(=O)O)C(C)C)C4)cc2)cc1 [Example 54, (S)-3-Methyl-2-(1-oxo-6-(4-(3-p-tolylthioureido)phenyl)isoindolin-2-yl)butanoic acid] |
| > 50% | COc1cccc(NC(=S)Nc2ccc(-c3ccc4c(c3)C(=O)N([C@H](C(=O)O)C(C)C)C4)cc2)c1 [Example 60, (S)-2-(6-(4-(3-(3-Methoxyphenyl)thioureido)phenyl)-1-oxoisoindolin-2-yl)-3-methylbutanoic acid] |
| 10 to 50% | CC(C)[C@@H](C(=O)O)N1Cc2ccc(-c3ccc(NC(=S)Nc4ccc(Cl)cc4)cc3)cc2C1=O [Example 62, (S)-2-(6-(4-(3-(4-Chlorophenyl)thioureido)phenyl)-1-oxoisoindolin-2-yl)-3-methyl butanoic acid] |
| 10 to 50% | CC(C)[C@@H](C(=O)O)N1Cc2ccc(-c3ccc(NC(=S)Nc4cccc(Cl)c4)cc3)cc2C1=O [Example 64, (S)-2-(6-(4-(3-(3-Chlorophenyl)thioureido)phenyl)-1-oxoisoindolin-2-yl)-3-methyl butanoic acid] |
| > 50% | CC(C)[C@@H](C(=O)O)N1Cc2ccc(-c3ccc(NC(=S)Nc4ccc(C#N)cc4)cc3)cc2C1=O [Example 68, (S)-2-(6-(4-(3-(4-Cyanophenyl)thioureido)phenyl)-1-oxoisoindolin-2-yl)-3-methyl butanoic acid] |
